According to patent US20080221063A1, “Heterocyclic Sulfonamide Derivatives As Inhibitors Of Factor Xa” (ASTRAZENECA AB, priority 2005, published 2008):

Target: T1, human FXa (Homo sapiens, UniProt P00742)
T1 construct: FXa solution (human FXa, Haematologic Technologies Inc., Essec Junction, Vt., USA); purchased Haematologic Technologies Inc
Test: Measurement of Factor Xa Inhibition (chromogenic substrate method)
Assay type: biochemical
Conditions: chromogenic substrate S-2765, 40 min incubation at 37° C., pH 7.4
Procedure: a) Measurement of Factor Xa Inhibition
The FXa inhibitor potency was measured with a chromogenic substrate method, in a Plato 3300 robotic microplate processor (Rosys AG, CH-8634 Hombrechtikon, Switzerland), using 96-well, half-volume microtiter plates (Costar, Cambridge, Mass., USA; Cat No 3690). Stock solutions of test substance in DMSO (72 μL), 10 mmol/L, alternatively 1 mmol/L were diluted serially 1:3 (24+48 μL) with DMSO to obtain ten different concentrations, which were analyzed as samples in the assay, together with controls and blanks. As control sample melagatran was analysed. The dilutions of each test substance were analyzed consecutively, row-wise on the microtiter plate, with wasp cycles between substances to avoid cross-contamination. […] The final assay concentrations were: test substance 0.0068-133, respectively 0.00068-13.3 μmol/L, S-2765 0.40 mmol/L (KM=0.25 mmol/L) and FXa […]. The linear absorbance increase at 405 n=during 40 min incubation at 37° C. was used for calculation of percent inhibition for the test samples, as compared to references without inhibitor and/or enzyme. […]

T1 sequence (P00742 235-488 limits assumed): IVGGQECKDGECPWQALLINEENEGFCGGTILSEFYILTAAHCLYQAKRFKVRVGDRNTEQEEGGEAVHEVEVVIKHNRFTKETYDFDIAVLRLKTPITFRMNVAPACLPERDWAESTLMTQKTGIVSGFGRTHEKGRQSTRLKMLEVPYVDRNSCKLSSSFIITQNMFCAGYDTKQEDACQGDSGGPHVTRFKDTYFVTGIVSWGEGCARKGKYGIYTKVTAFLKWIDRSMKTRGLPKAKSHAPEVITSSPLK
T1 sequence (P00742 41-179 partner limits assumed): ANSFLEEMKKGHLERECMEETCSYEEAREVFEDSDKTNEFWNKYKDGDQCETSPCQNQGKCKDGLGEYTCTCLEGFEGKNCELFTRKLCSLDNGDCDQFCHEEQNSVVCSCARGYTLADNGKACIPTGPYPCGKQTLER

IC50	SMILES
5 nM	CCNC(=O)C1CN(S(=O)(=O)c2ccc3c(Cl)c[nH]c3c2)CC(=O)N1CC1CCN(c2ccc(=O)n(C)n2)CC1 (centres unmarked) [Example 4, 4-(3-Chloro-1H-indole-6-sulfonyl)-1-[1-(1-methyl-6-oxo-1,6-dihydro-pyridazin-3-yl)-piperidin-4-ylmethyl]-6-oxo-piperazine-2-carboxylic acid ethylamide]
2.3 nM	CC(C)OC(=O)C1CN(S(=O)(=O)c2ccc3c(Cl)c[nH]c3c2)CC(=O)N1CC1CCN(c2ccc(=O)n(C)n2)CC1 (centres unmarked) [Example 13, 4-(3-Chloro-1H-indole-6-sulfonyl)-1-[1-(1-methyl-6-oxo-1,6-dihydro-pyridazin-3-yl)-piperidin-4-ylmethyl]-6-oxo-piperazine-2-carboxylic acid isopropyl ester]
